# Data reported in publication PMC11522292, “TamGen: drug design with target-aware molecule generation through a chemical language model” (Nature Communications, 2024).
# Assays:
# ClpP1P2 complex in Mtb [1] = target: T1, ClpP1P2 complex in Mtb (Mycobacterium tuberculosis, UniProt P9WPC5); experiment: ClpP1P2 peptidase activity assay, dose-response and IC50 determination; format: biochemical
# Experimental: (§1) ClpP1P2 complex in Mtb can catalyze the hydrolysis of small peptides. Following previous protocols, we measure the in vitro inhibition of ClpP peptidase activity by monitoring the cleavage of fluorogenic peptide Ac-Pro-Lys-Met-AMC[65]–[67].
# (§2) The solution is pre-incubated at room temperature for 2 hours. Then, 20 μL substrate buffer with Ac-Pro-Lys-Met-AMC is added (final concentration of Ac-Pro-Lys-Met-AMC is 10 μM; reaction buffer is the same with the above). Fluorescence (Ex/Em: 380/ 440 nm) is recorded for 120 min at 37 °C.
# To determine IC50, candidate inhibitors are assayed at 9 or 10 gradient concentrations. […] IC50 is determined by the change of recorded fluorescence (as RFU) and gradient dilution of inhibitors concentration. Non-linear fit (log(inhibitor) vs. normalized response) is used for IC50 curve fitting.
# ClpP1P2 complex in Mtb [2] = target: T1, ClpP1P2 complex in Mtb; experiment: ClpP1P2 peptidase activity assay, single-dose response; format: biochemical; details: read-out: Inhibition rate relative to Bortezomib
# Experimental: as §1, §2
# [3] = source data Figure4b, synthesized compounds
# [4] = source data Figure4b, screening hits
# T1 sequence (P9WPC5 whole entry, looked up, one chain of several): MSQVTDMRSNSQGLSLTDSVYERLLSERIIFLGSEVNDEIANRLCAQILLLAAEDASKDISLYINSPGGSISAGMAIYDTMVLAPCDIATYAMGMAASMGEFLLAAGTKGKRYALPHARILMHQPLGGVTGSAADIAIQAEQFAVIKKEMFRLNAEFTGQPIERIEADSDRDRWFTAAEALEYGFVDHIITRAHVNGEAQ
Compound,IC50 (ClpP1P2 complex in Mtb [1]; [3]),IC50 (ClpP1P2 complex in Mtb [1]; [4]),further results
NS(=O)(=O)c1ccc(NC(=O)Nc2ccc(Cl)c(C(F)(F)F)c2)cc1 [Syn-A003-01],20.3 µM,,
CN(C)S(=O)(=O)c1ccc(C(=O)N2C(=O)c3ccccc3C2=O)cc1 [Syn-A005-02],3.4 µM,,
CN(C)S(=O)(=O)c1ccc(C(=O)N2C(=O)c3cccc(N)c3C2=O)cc1 [Analog-005],,1.88 µM,"IC50 (ClpP1P2 complex in Mtb [1]; Mtb ClpP, dose-response assay, Fig. 4b and text): 1.9 µM"
O=C(Nc1ccccc1F)Nc1ccccc1NC(=O)c1ccccc1Cl [Analog-002],,19.9 µM,
Oc1c(Cc2ccccc2)ccc2ccccc12 [Analog-004],,19.6 µM,
O=C(Nc1ccc(F)cc1)Nc1ccc(Br)c(C(F)(F)F)c1 [Analog-001],,17.2 µM,
Cc1ccc(C(=O)N2C(=O)c3ccccc3C2=O)cc1 [Syn-A005-01],5.34 µM,,
NS(=O)(=O)c1ccc(NC(=O)Nc2cc(Cl)cc(Cl)c2)cc1 [Analog-003],,10.1 µM,inhibition at 20 µM (ClpP1P2 complex in Mtb [2]): 48%
